Assay results reported in US5077059A, “Process for preparing melanogenic inhibitor, and pigmentation-lightening agent containing the same” (Yuaka; Mishimazo, priority 1987, dated 1991).

Legend:
Format in all cases: cell-based
[1] = test system: B-16 cell derived from mouse melanoma; test: Melanogenic inhibitory activity in a prescribed pigment cell (B-16); details: Experiment 2, B-16 cell; intact melanogenic inhibitor at 1 or 3 units
Experimental: The melanogenic inhibitory activity in a prescribed pigment cell is detected by the method described in Cancer Research, Vol. 42, pp. 1994-2002 (1982).
B-16 cell derived from mouse melanoma is suspended in 10 ml Eagle's minimal essential medium (Grand Island Biological Co., Grand Island, N.Y.), supplemented with 10% fetal calf serum, to give 4×10^4 cells. The suspension is placed into a 25 cm^2 Roux's flask, and cultured at 37° C. with 5% CO2. The cultivation is continued for 5 days while replacing the culture medium with a fresh one supplemented with a melanogenic inhibitor specimen at the first- and third-days. After completion of the culture, the resultant cells are washed with a phosphate buffer (pH 7.2) containing 0.8 w/v % saline to detach them from the inside wall of the Roux's flask by the addition of a solution containing trypsin and EDTA (ethylenediaminetetraacetic acid), collected on a filter paper, and dried. The resultant cells are subjected to densitometry to measure the reflection light at a wave length of 500 nm, followed by determination of the reflection absorbance (degree of darkness).
One unit of melanogenic inhibitory activity is defined as the amount of the melanogenic inhibitor which halves the reflection absorbance of B-16 cells without treatment of melanogenic inhibitor.
(§1) According to the method for detecting melanogenic inhibitory activity in a prescribed pigment cell, specimens containing 1 or 3 units of an intact melanogenic inhibitor, obtained by the method in Experiment 1, were used to compare melanogenic inhibitory activity in established melanoma cell lines, i.e., B-16 cell (mouse melanoma origin), RPMI 1846 cell (hamster melanoma origin), and Malme-3M cell (human melanoma origin).

[2] = test system: RPMI 1846 cell (hamster melanoma origin); test: Comparison of melanogenic inhibitory activity, RPMI 1846 cell; details: Experiment 2, RPMI 1846 cell; intact melanogenic inhibitor at 1 or 3 units
Source text: as §1
(§2) As control, either a system without melanogenic inhibitor or another system with melanogenic inhibitor which had been treated at […] for 2 hours was tested similarly as above.

[3] = test system: Malme-3M cell (human melanoma origin); test: Comparison of melanogenic inhibitory activity, Malme-3M cell; details: Experiment 2, Malme-3M cell; intact melanogenic inhibitor at 1 or 3 units
Source text: as §1, §2

Measured: melanogenic inhibitory activity, comparison

O=C1O[C@H]([C@@H](O)CO)C(O)=C1O [vitamin C]
no melanogenic inhibition: [1] | [2] | [3]

N[C@@H](CS)C(=O)O [cysteine]
no melanogenic inhibition: [1] | [2] | [3]

N[C@@H](CCC(=O)N[C@@H](CS)C(=O)NCC(=O)O)C(=O)O [glutathione]
no melanogenic inhibition: [1] | [2] | [3]
